Laboratory results reported in ChEMBL document CHEMBL4342414, “Activity of 2,6,9-trisubstituted purines as potent PDGFRα kinase inhibitors with antileukaemic activity” (Eur J Med Chem, 2019).

Experiments:
K562 = test: Cytotoxicity against human K562 cells assessed as growth inhibition after 72 hrs by resazurin dye-based fluorescence analysis; assay type: functional; details: K562, 72 h
HCC827 = test: Cytotoxicity against human HCC827 cells assessed as growth inhibition after 72 hrs by resazurin dye-based fluorescence analysis; assay type: functional; details: HCC827, 72 h
[1] = Cytotoxicity against human BJ cells assessed as growth inhibition after 72 hrs by resazurin dye-based fluorescence analysis; assay type: cell-based
EOL1 = test: Cytotoxicity against FIP1L1-PDGFRA positive human EOL-1 cells assessed as growth inhibition after 72 hrs by resazurin dye-based fluorescence analysis; assay type: functional; details: EOL1, 72 h
[2] = Cytotoxicity against human CEM cells assessed as growth inhibition after 72 hrs by resazurin dye-based fluorescence analysis; assay type: cell-based; details: CEM (CCRF-CEM) cells

Structure (SMILES) | GI50 (K562) | GI50 (HCC827) | GI50 at 72 h [1] | GI50 (EOL1) | GI50 at 72 h [2]
COc1ccc(-c2ccc(Nc3nc(N[C@H]4CC[C@H](N)CC4)nc4c3ncn4C3CCCC3)cn2)cc1 | 698 nM | 581 nM | 7230 nM | 25 nM | 544 nM
COc1ccccc1-c1ccc(Nc2nc(N[C@H]3CC[C@H](N)CC3)nc3c2ncn3C2CCCC2)cn1 | 553 nM | 638 nM | 6200 nM | 14 nM | 460 nM
OCCCCNc1nc(Nc2cccc(CN3CCOCC3)c2)c2ncn(C3CCCC3)c2n1 | 30400 nM | 8130 nM | 25700 nM | 282 nM | 11100 nM
NCCCCNc1nc(Nc2cccc(CN3CCOCC3)c2)c2ncn(C3CCCC3)c2n1 | 8400 nM | 5370 nM | 22000 nM | 61 nM | 8190 nM
NCCCCNc1nc(Nc2ccc(CN3CCOCC3)cc2)c2ncn(C3CCCC3)c2n1 | 2790 nM | 2040 nM | 9540 nM | 49 nM | 3040 nM
OCCCCNc1nc(Nc2ccc(N3CCN(Cc4ccccc4)CC3)cc2)c2ncn(C3CCC(O)C3)c2n1 (centres undefined) | 3720 nM | 3960 nM | 23800 nM | 223 nM | 9080 nM
N[C@H]1CC[C@H](Nc2nc(Nc3cccc(CN4CCOCC4)c3)c3ncn(CCCO)c3n2)CC1 | > 40000 nM | 25500 nM | > 40000 nM | 75 nM | > 40000 nM
N[C@H]1CC[C@H](Nc2nc(Nc3ccc(Oc4nccs4)cc3)c3ncn(C4CCCC4)c3n2)CC1 | 676 nM | 692 nM | 6850 nM | 8 nM | 650 nM
OCCCCNc1nc(Nc2ccc(CN3CCOCC3)cc2)c2ncn(C3CCCC3)c2n1 | – | 2510 nM | 22800 nM | 202 nM | 3480 nM
N[C@H]1CC[C@H](Nc2nc(Nc3ccc(Oc4ccc(Br)cn4)cc3)c3ncn(C4CCCC4)c3n2)CC1 | 6080 nM | 3730 nM | > 40000 nM | 122 nM | 6160 nM
NCCCCNc1nc(Nc2ccc(Oc3nccs3)cc2)c2ncn(C3CCCC3)c2n1 | 5980 nM | 6310 nM | 18600 nM | 118 nM | 8640 nM
N[C@H]1CC[C@H](Nc2nc(Nc3ccc(N4CCN(Cc5ccccc5)CC4)cc3)c3ncn(C4CCCC4)c3n2)CC1 | 970 nM | 918 nM | 10000 nM | 22 nM | 582 nM
N[C@H]1CC[C@H](Nc2nc(Nc3ccc(-c4cccs4)nc3)c3ncn(C4CCCC4)c3n2)CC1 | 574 nM | 652 nM | 2940 nM | 21 nM | 477 nM
OCCCCNc1nc(Nc2ccc(Oc3nccs3)cc2)c2ncn(C3CCCC3)c2n1 | 6080 nM | 6050 nM | 23500 nM | 489 nM | 13400 nM
OCCCCNc1nc(Nc2ccc(CN3CCOCC3)cc2)c2ncn(C3CCC(O)C3)c2n1 (centres undefined) | 3780 nM | 3260 nM | 26100 nM | 162 nM | 6430 nM
N[C@H]1CC[C@H](Nc2nc(Nc3cccc(CN4CCOCC4)c3)c3ncn(C4CCC(O)C4)c3n2)CC1 (some centres undefined) | 1850 nM | 1670 nM | > 40000 nM | 9 nM | 1650 nM
OCCCCNc1nc(Nc2ccc(CN3CCOCC3)cc2)c2ncn(CCCO)c2n1 | 4740 nM | 10600 nM | 20800 nM | 294 nM | 5170 nM
N[C@H]1CC[C@H](Nc2nc(Nc3ccc(CN4CCOCC4)cc3)c3ncn(C4CCC(O)C4)c3n2)CC1 (some centres undefined) | 1040 nM | 801 nM | > 40000 nM | 8 nM | 1420 nM
